Paper PMC6253880, “2-Amido-3-(1H-Indol-3-yl)-N-Substitued-Propanamides as a New Class of Falcipain-2 Inhibitors. 1. Design, Synthesis, Biological Evaluation and Binding Model Studies” (Molecules, 2009)
Like-named read-outs stand apart in the source and are kept apart here.

How the values were obtained:
falcipain-2 (FP-2) [1] = biological target: T1, falcipain-2 (FP-2) (Plasmodium falciparum, UniProt Q8I6U4); experiment: Enzyme inhibition assay, recombinant FP-2, substrate Z-Leu-Arg-AMC, fluorescence; format: biochemical; conditions: for Inhibition rate at 10 μM (%): 10 μM compound; for Inhibition rate at 10 μM (%) / inhibition at 10 µM: FP-2 30 nM, pH 5.5, 30 min preincubation
T1 construct: made in house
T1 sequence (Q8I6U4 244-484): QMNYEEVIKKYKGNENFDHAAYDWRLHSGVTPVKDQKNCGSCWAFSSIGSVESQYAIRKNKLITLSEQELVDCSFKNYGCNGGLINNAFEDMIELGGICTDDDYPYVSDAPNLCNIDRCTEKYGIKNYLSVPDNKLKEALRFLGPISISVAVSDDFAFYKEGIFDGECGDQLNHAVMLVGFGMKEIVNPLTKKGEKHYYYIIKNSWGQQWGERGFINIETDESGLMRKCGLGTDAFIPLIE
Protocol: (§1) For the primary assay, the percent inhibitions of the compounds were measured at 10 μM. […] It is clear that the inhibitory activity of compound 2k was ~3 times higher than that of the lead compound 1, proving the validity of our chemical modifications. The anti-malarial potential of compound 1 in mice was investigated with Plasmodium berghei ANKA using a standard 4-day suppression test.
The purification and refolding of recombinant protein FP-2 was performed as described by Shenai et al. IC50 values against recombinant FP-2 were determined as described previously. FP-2 (30nM) was incubated for 30 min at room temperature in 100 mM sodium acetate, pH 5.5, 10 mM DTT, with different concentrations of tested inhibitors. Inhibitor solutions were prepared from stock in DMSO (maximum concentration of DMSO in the assay was 1%). After 30 min incubation, the substrate Z-Leu-Arg-AMC (benzoxycarbonyl-Leu-Arg-7-amino-4-methylcoumarin, Bachem AG) in the same buffer was added to a final concentration of 25 μM. The increase in fluorescence (excitation at 355 nm and emission at 460 nm) was monitored for 30 min at room temperature with an automated microtiter plate spectrofluorimeter (Molecular Devices, Flex Station). Half-maximal inhibitory concentration (IC50) was determined from plots of percent activity over compound concentration using GraphPad Prism software.

Plasmodium berghei ANKA = experiment: Standard 4-day suppression test in mice; format: in vivo; conditions: 9 mg/kg body weight intragastric daily for 4 days following infection, unpublished data
Protocol: as §1

falcipain-2 (FP-2) [2] = biological target: T1, falcipain-2 (FP-2); experiment: Surface plasmon resonance-based FP-2/ligand binding assay (Biacore 3000, CM5 chip); conditions: SPR, immobilized FP-2, steady state affinity fitting, 25°C, HBS-EP pH 7.4
From the text: Targeting the crystal structure of FP-2 (PDB entry 2GHU), a total of 80,000 compounds were subsequently docked and ranked according to the Glide and GAsDock software. Finally, 81 compounds were purchased and submitted to biological evaluations against FP-2. Because enzymatic assays are time-consuming, surface plasmon resonance (SPR) measurements were used for the primary screening to determine the binding affinity of these 81 candidate molecules to FP-2. […] Among the 81 compounds, the biosensor RU of compound 1 was concentration-dependent. […] Thus, compound 1 could be designated as a binder (or hit) of FP-2.
The purification and refolding of recombinant protein FP-2 was performed as described by Shenai et al. The binding affinity of compound 1 to FP-2 in vitro was determined based on surface plasmon resonance (SPR) technology. The measurement was performed using the dual flow cell Biacore 3000 instrument (Biacore AB, Uppsala, Sweden). Immobilization of FP-2 to the hydrophilic carboxymethylated dextran matrix of the sensor chip CM5 (Biacore) was carried out by the standard primary amine coupling reaction wizard. […] The equilibrium constants (KD values) evaluating the protein–ligand binding affinities were determined by the steady state affinity fitting analysis of the Biacore data.

[3] = pH 5.5, read-out: Inhibition rate at 10 μM (%), 10 μM compound
[4] = pH 5.5, 10 μM compound, read-out: Inhibition rate at 10 μM (%)

COC(=O)c1ccc(CNC(=O)[C@@H](Cc2c[nH]c3ccccc23)NC(=O)Oc2ccccc2)cc1 [Compound 2l, (R)-2-Phenoxycarboxamido-3-(1H-indol-3-yl)-N-(4-methoxycarbonyl-phenylmethyl)-propanamide]
IC50 (falcipain-2 (FP-2) [1]): 13.3 µM
Inhibition rate at 10 μM (%) (falcipain-2 (FP-2) [1]): 32.9%
inhibition at 10 µM (falcipain-2 (FP-2) [1]; [3]): > 20%

O=C(N[C@H](Cc1c[nH]c2ccccc12)C(=O)NCc1cccs1)Oc1ccccc1 [Compound 2i, (R)-2-Phenoxycarboxamido-3-(1H-indol-3-yl)-N-[(thiophen-2-yl)methyl]-propanamide]
melting point: 184 to 186 °C
inhibition at 10 µM (falcipain-2 (FP-2) [1]; [3]): 2.2%

O=C(N[C@H](Cc1c[nH]c2ccccc12)C(=O)Nc1ccc(F)cc1)Oc1ccccc1 [Compound 2e, (R)-2-Phenoxycarboxamido-3-(1H-indol-3-yl)-N-(4-fluorophenyl)-propanamide]
melting point: 185 to 189 °C
inhibition at 10 µM (falcipain-2 (FP-2) [1]; [3]): 3.1%

O=C(N[C@H](Cc1c[nH]c2ccccc12)C(=O)NCc1ccccc1)Oc1ccccc1 [Compound 1, (R)-2-Phenoxycarboxamido-3-(1H-indol-3-yl)-N-benzylpropanamide]
reduction in parasitemia relative to normal control (Plasmodium berghei ANKA): < 50%
IC50 (falcipain-2 (FP-2) [1]): 29.7 µM
Inhibition rate at 10 μM (%) (falcipain-2 (FP-2) [1]): 29.4%
inhibition at 10 µM (falcipain-2 (FP-2) [1]; [3]): > 20%
Kd (falcipain-2 (FP-2) [2]): 5.88 µM

O=C(N[C@H](Cc1c[nH]c2ccccc12)C(=O)Nc1ccc2c(c1)OCO2)Oc1ccccc1 [Compound 2g, (R)-2-Phenoxycarboxamido-3-(1H-indol-3-yl)-N-(benzo[1,3]dioxol-5-yl)-propanamide]
melting point: 186 to 188 °C
inhibition at 10 µM (falcipain-2 (FP-2) [1]; [3]): 3.1%

CCOc1ccc(NC(=O)[C@@H](Cc2c[nH]c3ccccc23)NC(=O)Oc2ccccc2)cc1 [Compound 2f, (R)-2-Phenoxycarboxamido-3-(1H-indol-3-yl)-N-(4-ethoxyphenyl)-propanamide]
melting point: 180 to 184 °C
inhibition at 10 µM (falcipain-2 (FP-2) [1]; [3]): 13.6%

O=C(N[C@H](Cc1c[nH]c2ccccc12)C(=O)NCc1ccc([N+](=O)[O-])cc1)Oc1ccccc1 [Compound 2k, (R)-2-Phenoxycarboxamido-3-(1H-indol-3-yl)-N-[(4-nitrophenyl)methyl]-propanamide]
IC50 (falcipain-2 (FP-2) [1]): 10 µM
FP-2 inhibitory activity relative to lead compound 1 (fold better) (falcipain-2 (FP-2) [1]; ratio of inhibitory activity versus compound 1): ~ 3

O=C(Cc1ccccc1)N[C@H](Cc1c[nH]c2ccccc12)C(=O)NCc1ccccc1 [Compound 2b, (R)-2-(2-Phenylacetamido)-3-(1H-indol-3-yl)-N-benzylpropanamide]
Inhibition rate at 10 μM (%) (falcipain-2 (FP-2) [1]): 25.7%
inhibition at 10 µM (falcipain-2 (FP-2) [1]; [4]): > 20%
IC50 (falcipain-2 (FP-2) [1]; recombinant FP-2 30 nM, Z-Leu-Arg-AMC 25 μM, pH 5.5, read-out: IC50): 39.4 µM

C#CCNC(=O)[C@@H](Cc1c[nH]c2ccccc12)NC(=O)Oc1ccccc1 [Compound 2j, (R)-2-Phenoxycarboxamido-3-(1H-indol-3-yl)-N-(prop-2-yn-1-yl)-propanamide]
melting point: 173 to 177 °C
inhibition at 10 µM (falcipain-2 (FP-2) [1]; [3]): 6.6%

O=C(N[C@@H](Cc1c[nH]c2ccccc12)C(=O)NCc1ccccc1)Oc1ccccc1 [Compound 2a, (S)-2-Phenoxycarboxamido-3-(1H-indol-3-yl)-N-benzylpropanamide]
inhibition at 10 µM (falcipain-2 (FP-2) [1]; [3]): 14.3%

O=C(NCc1ccccc1)[C@@H](Cc1c[nH]c2ccccc12)NCc1ccccc1 [Compound 2c, (R)-2-Benzylamino-3-(1H-indol-3-yl)-N-benzyl-propanamide]
melting point: 38 to 40 °C
inhibition at 10 µM (falcipain-2 (FP-2) [1]; [4]): 13%

O=C(N[C@H](Cc1c[nH]c2ccccc12)C(=O)Nc1ccccc1)Oc1ccccc1 [Compound 2d, (R)-2-Phenoxycarboxamido-3-(1H-indol-3-yl)-N-phenylpropanamide]
melting point: 195 to 197 °C
inhibition at 10 µM (falcipain-2 (FP-2) [1]; [3]): 11.8%
